The test has as its target T1, human 11β-HSD1 (Homo sapiens, UniProt P28845).
T1 construct: expressed in transfected cells; host or cells: CHO cells (microsomes)
In words: Inhibition of microsomal preparation of 11β-HSD1 (SPA, Biological Test Example 1). The note with it: for inhibition at 0.111 µM: 111 nM; for IC50: microsomes from CHO cells overexpressing human 11β-HSD1, read-out: IC50 Range. In kind it is biochemical. A digest of the protocol: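 Microsomes from CHO cells overexpressing human 11β-HSD1 reduced [3H]cortisone (160 nM in substrate solution, with 2 mM NADPH, HEPES pH 7.4) for 90 min at rt after a 10 min compound preincubation. Compounds were run as 8-point half-log DMSO dilutions from 0.1 mM. 18β-glycyrrhetinic acid stopped the reaction, and anti-cortisol antibody SPA beads read [3H]cortisol.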

The results in this text go back to patent US8383629B2, “Inhibitors of 11β-hydroxysteroid dehydrogenase type 1” (Vitae Pharmaceuticals, Inc., priority 2008, dated 2013).

Bounds are passed on as bounds.

T1 sequence (P28845 whole entry): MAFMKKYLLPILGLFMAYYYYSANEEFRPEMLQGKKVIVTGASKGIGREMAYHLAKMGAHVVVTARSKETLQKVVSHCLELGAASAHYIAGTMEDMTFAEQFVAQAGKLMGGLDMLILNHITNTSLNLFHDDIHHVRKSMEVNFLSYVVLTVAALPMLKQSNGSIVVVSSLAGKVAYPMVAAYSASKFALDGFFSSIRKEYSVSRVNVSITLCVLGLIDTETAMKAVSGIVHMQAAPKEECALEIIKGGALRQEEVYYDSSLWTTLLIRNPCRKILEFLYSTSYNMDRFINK

As a reminder, the inhibition is how much of the control response was suppressed. A high value points to a strong effect. Broadly, the IC50 is the point on the concentration scale where inhibition reaches its midpoint. Take `CCOC(=O)CC1CC2(CCN(C(=O)NCc3ccccc3C)CC2)c2c(Br)cccc21` (stereo not drawn) [EXAMPLE 86, Ethyl 2-(7-bromo-1′(2-methylbenzylcarbamoyl)-2,3-dihydrospiro[indene-1,4′-piperidine]-3-yl)acetate]: the inhibition at 0.111 µM was 58.7% and the half-maximal inhibitory concentration (IC50) was less than 0.1 µM.

As for `Cc1ccccc1CNC(=O)N1CCC2(CC1)CC(CC(=O)O)c1cccc(Br)c12` (stereo not drawn) [EXAMPLE 87, 2-(7-bromo-1′-(2-methylbenzylcarbamoyl)-2,3-dihydrospiro[indene-1,4′-piperidine]-3-yl)acetic acid], 0.111 µM produced 57.2% inhibition and the 50% inhibitory concentration (IC50) was less than 0.1 µM.

Consider `Cc1ccccc1CNC(=O)N1CCC2(CC1)CC(CC(=O)N1CCN(C(=O)OC(C)(C)C)CC1)c1cccc(Br)c12` (stereo not drawn) [EXAMPLE 88, tert-butyl 4-(2-(7-bromo-1′-(2-methylbenzylcarbamoyl)-2,3-dihydrospiro[indene-1,4′-piperidine]-3-yl)acetyl)piperazine-1-carboxylate], for which the inhibition at 0.111 µM stood at 66.2% and the IC50 is less than 0.1 µM.

Turning to `CCOC(=O)CC1CC2(CCN(C(=O)NCc3c(C)cccc3Cl)CC2)c2c(Br)cccc21` (stereo not drawn) [EXAMPLE 89, Ethyl 2-(7-bromo-1′-(2-chloro-6-methylbenzylcarbamoyl)-2,3-dihydrospiro[indene-1,4′-piperidine]-3-yl)acetate], at 0.111 µM the inhibition was 61.2% and the IC50 is less than 0.1 µM.

In the case of `Cc1ccccc1CNC(=O)N1CCC2(CC1)CC(CC(=O)N1CCNCC1)c1cccc(Br)c12` (stereo not drawn) [EXAMPLE 90, 7-bromo-N-(2-methylbenzyl)-3-(2-oxo-2-(piperazin-1-yl)ethyl)-2,3-dihydrospiro[indene-1,4′-piperidine]-1′-carboxamide], the inhibition at 0.111 µM is 52.4% and the half-maximal inhibitory concentration (IC50) lay in the range of 0.1 to 1 µM.

In the case of `Cc1cccc(Cl)c1CNC(=O)N1CCC2(CC1)CC(CC(=O)O)c1cccc(Br)c12` (stereo not drawn) [EXAMPLE 91, 2-(7-bromo-1′-(2-chloro-6-methylbenzylcarbamoyl)-2,3-dihydrospiro[indene-1,4′-piperidine]-3-yl)acetic acid], the inhibition at 0.111 µM came out at 64.1% and the IC50 was less than 0.1 µM.

For `CCOC(=O)CC1CC2(CCN(C(=O)NCc3ccccc3C(F)(F)F)CC2)c2c(Br)cccc21` (stereo not drawn) [EXAMPLE 92, Ethyl 2-(7-bromo-1′-(2-(trifluoromethyl)benzylcarbamoyl)-2,3-dihydrospiro[indene-1,4′-piperidine]-3-yl)acetate], the inhibition at 0.111 µM was determined as 70.5% and the 50% inhibitory concentration (IC50) is less than 0.1 µM.

Take `CCOC(=O)CC1CC2(CCN(C(=O)NCc3ccccc3S(C)(=O)=O)CC2)c2c(Br)cccc21` (stereo not drawn) [EXAMPLE 93, Ethyl 2-(7-bromo-1′-(2-(methylsulfonyl)benzylcarbamoyl)-2,3-dihydrospiro[indene-1,4′-piperidine]-3-yl)acetate]: the inhibition at 0.111 µM was 18.5% and the 50% inhibitory concentration (IC50) was 0.1 to 1 µM.

For the molecule `O=C(O)CC1CC2(CCN(C(=O)NCc3ccccc3C(F)(F)F)CC2)c2c(Br)cccc21` (stereo not drawn) [EXAMPLE 94, 2-(7-bromo-1′-(2-(trifluoromethyl)benzylcarbamoyl)-2,3-dihydrospiro[indene-1,4′-piperidine]-3-yl)acetic acid], testing at 0.111 µM gave an inhibition of 75.7% and the IC50 was less than 0.1 µM.

Turning to `CCOC(=O)CC1CC2(CCN(C(=O)NCc3ccccc3OC(C)C)CC2)c2c(Br)cccc21` (stereo not drawn) [EXAMPLE 95, Ethyl 2-(7-bromo-1′-(2-isopropoxybenzylcarbamoyl)-2,3-dihydrospiro[indene-1,4′-piperidine]-3-yl)acetate], the inhibition at 0.111 µM is 19.9% and the IC50 is 0.1 to 1 µM.

On to `O=C(O)CC1CC2(CCN(C(=O)NCc3ccccc3N3CCCC3)CC2)c2c(Br)cccc21` (stereo not drawn) [EXAMPLE 96, 2-(7-bromo-1′-(2-(pyrrolidin-1-yl)benzylcarbamoyl)-2,3-dihydrospiro[indene-1,4′-piperidine]-3-yl)acetic acid], for which the inhibition at 0.111 µM stood at 48.9% and the half-inhibitory concentration (IC50) is 0.1 to 1 µM.

As for `CS(=O)(=O)c1ccccc1CNC(=O)N1CCC2(CC1)CC(CC(=O)O)c1cccc(Br)c12` (stereo not drawn) [EXAMPLE 97, 2-(7-bromo-1′-(2-(methylsulfonyl)benzylcarbamoyl)-2,3-dihydrospiro[indene-1,4′-piperidine]-3-yl)acetic acid], the inhibition at 0.111 µM was found to be 5.6% and the IC50 lay within 0.1 to 1 µM.

Regarding `CC(C)Oc1ccccc1CNC(=O)N1CCC2(CC1)CC(CC(=O)O)c1cccc(Br)c12` (stereo not drawn) [EXAMPLE 98, 2-(7-bromo-1′-(2-isopropoxybenzylcarbamoyl)-2,3-dihydrospiro[indene-1,4′-piperidine]-3-yl)acetic acid], the inhibition at 0.111 µM turned out to be 48.2% and the IC50 was less than 0.1 µM.

As for `O=C1CC2(CCN(C(=O)NCc3ccccc3OC(F)(F)F)CC2)c2c(Br)cccc21` [EXAMPLE 99, 7-bromo-3-oxo-N-(2-(trifluoromethoxy)benzyl)-2,3-dihydrospiro[indene-1,4′-piperidine]-1′-carboxamide], the inhibition at 0.111 µM amounted to 75.6% and the half-maximal inhibitory concentration (IC50) is less than 0.1 µM.

In the case of `CN1C(=O)c2cccc(Cl)c2C12CCN(C(=O)NCc1ccccc1C(F)(F)F)CC2` [EXAMPLE 100, 7-chloro-2-methyl-3-oxo-N-(2-(trifluoromethyl)benzyl)spiro[isoindoline-1,4′-piperidine]-1′-carboxamide], the inhibition at 0.111 µM is 46.8% and the 50% inhibitory concentration (IC50) fell in the range of 0.1 to 1 µM.

For `CCOC(=O)CC1CC2(CCN(C(=O)N(C)Cc3ccccc3C(F)(F)F)CC2)c2c(Br)cccc21` (stereo not drawn) [EXAMPLE 101, Ethyl 2-(7-bromo-1′-(methyl(2-(trifluoromethyl)benzyl)carbamoyl)-2,3-dihydrospiro[indene-1,4′-piperidine]-3-yl)acetate], at 0.111 µM the inhibition was 42.6% and the IC50 fell in the range of 0.1 to 1 µM.

`CN(Cc1ccccc1C(F)(F)F)C(=O)N1CCC2(CC1)CC(CC(=O)O)c1cccc(Br)c12` (stereo not drawn) [EXAMPLE 102, 2-(7-bromo-1′-(methyl(2-(trifluoromethyl)benzyl)carbamoyl)-2,3-dihydrospiro[indene-1,4′-piperidine]-3-yl)acetic acid]: the inhibition at 0.111 µM came out at 64.4% and the half-maximal inhibitory concentration (IC50) is less than 0.1 µM.

Consider `CCOC(=O)CC1CC2(CCN(C(=O)N(C)Cc3ccccc3F)CC2)c2c(Br)cccc21` (stereo not drawn) [EXAMPLE 103, Ethyl 2-(7-bromo-1′-((2-fluorobenzyl)(methyl)carbamoyl)-2,3-dihydrospiro[indene-1,4′-piperidine]-3-yl)acetate], for which the inhibition at 0.111 µM is 79.4% and the IC50 was less than 0.1 µM.

Consider `CN(Cc1ccccc1F)C(=O)N1CCC2(CC1)CC(CC(=O)O)c1cccc(Br)c12` (stereo not drawn) [EXAMPLE 104, 2-(7-bromo-1′((2-fluorobenzyl)(methyl)carbamoyl)-2,3-dihydrospiro[indene-1,4′-piperidine]-3-yl)acetic acid], for which 0.111 µM produced 88.7% inhibition and the IC50 was less than 0.1 µM.

Consider `O=C1CC2(CCN(C(=O)OCc3ccccc3C(F)(F)F)CC2)c2c(Br)cccc21` [EXAMPLE 105, 2-(trifluoromethyl)benzyl 7-bromo-3-oxo-2,3-dihydrospiro[indene-1,4′-piperidine]-1′-carboxylate], for which the inhibition at 0.111 µM amounted to 82.3% and the IC50 was less than 0.1 µM.

Take `O=C1CC2(CCN(C(=O)COc3ccccc3C(F)(F)F)CC2)c2c(Br)cccc21` [EXAMPLE 106, 7-bromo-1′-(2-(2-(trifluoromethyl)phenoxy)acetyl)spiro[indene-1,4′-piperidin]-3(2H)-one]: the IC50 is less than 0.1 µM.

As for `O=C1CC2(CCN(C(=O)CNc3ccccc3C(F)(F)F)CC2)c2c(Br)cccc21` [EXAMPLE 107], the half-inhibitory concentration (IC50) is 0.1 to 1 µM.
